Experimental data published in a melting point compilation (Tetko et al.; mined from patent text by program, amines drawn as free bases though some values may be those of a salt).

Compared with `O=C1CCOc2c1ccc1oc(Cl)cc21`, `O=c1[nH]c(=O)c2cc(N3CCCCC3)ccc2[nH]1` is higher in melting point: 144 to 146 °C for the first, > 280 °C for the second.

First: O=C(NC1CCCC1)c1ccc(S(=O)(=O)Cl)cc1
Second: O=C(O)c1cccc(C(=O)c2ccc(C3CCCCC3)cc2)c1
The melting point of the first is lower: 143 °C for the first, 180 to 185 °C for the second.

First: CCCn1c(=S)nc(NCc2ccncc2)c2[nH]c(C3CC3)nc21
Second: CCn1c(CNc2ccncc2)nc2c(C#N)nc(-c3cccc(C(F)(F)F)c3)cc21
The melting point of the first is lower: 204 to 210 °C for the first, 340 °C for the second.

First: O=C(O)C1=Cc2cc(Cl)c(Oc3ccc(C(F)(F)F)cc3)cc2OC1C(F)(F)F (configuration not stated)
Second: O=C(O)C1=Cc2cc(C(=O)c3ccc(Cl)cc3)ccc2OC1C(F)(F)F (configuration not stated)
The melting point of the first is lower: 231 to 232 °C for the first, 268 to 269 °C for the second.

First: O=C(O)C=CCNCS(=O)(=O)c1ccc([N+](=O)[O-])cc1[N+](=O)[O-]
Second: NNc1ccc([N+](=O)[O-])cc1F
The melting point of the first is higher: 174 °C for the first, 119 to 121 °C for the second.

Compared with `Cc1ccc2[nH]c3c(N)nn(C)c3c(=O)c2c1`, `CC(=O)c1cn(C)c2ccc(F)cc12` is lower in melting point: > 300 °C for the first, 158 to 160 °C for the second.

Compared with `O=C(O)c1cc(Cl)cc2c1CCCC2`, `Cc1c(C(=O)O)cnn1-c1ccc(F)c(Cl)c1` is higher in melting point: 130 to 140 °C for the first, 187 °C for the second.

First: CCOC(=O)Cc1ccc2oc3ccccc3c(=O)c2c1
Second: CCOC(=O)C(C=O)Cc1ccn(Cc2ccccc2)c(=O)c1 (configuration not stated)
The melting point of the first is lower: 97 to 98 °C for the first, 140 to 143 °C for the second.

Compared with `CCCCCCCCCCCCCCCCCCOc1cc(OCCOCCOCCOCC)cc(C(=O)O)c1`, `CCCCCCCCCCCCCCOc1cc(C(=O)Cl)ccc1OC` is higher in melting point: 38 to 40 °C for the first, 60 to 61 °C for the second.

First: Cc1nc2ccccc2n1Cc1ccc(-n2c(C)nc3cnccc32)cc1
Second: O=Cc1c(Cl)nc(-c2ccccc2)n1Cc1ccccc1
The melting point of the first is higher: 184 to 185 °C for the first, 117 to 118 °C for the second.

First: COC(=O)C1Cc2c([nH]c3ccccc23)C(c2ccccc2Br)N1 (configuration not stated)
Second: Cn1nnc(NC(=O)C2c3ccccc3Oc3ccccc32)n1
The melting point of the first is lower: 105 to 106 °C for the first, 247 °C for the second.

First: COc1ccc(-n2nc(NC(=O)OC(C)(C)C)c3csc(N)c3c2=O)cc1
Second: COc1ccc(-c2nc3ccc(-n4cncn4)cc3[nH]2)cc1OC(C)C
The melting point of the first is lower: 99 to 101 °C for the first, 118 to 126 °C for the second.

First: COc1ccc2c(c1)[C@@H](Oc1ccc3c(c1)CCC(=O)N3)[C@H](N1CCC[C@@H](N)C1)C2
Second: CN(C)N=C1CCC2C3CCc4cc(O[Si](C)(C)C(C)(C)C)ccc4C3CCC12C (configuration not stated)
The melting point of the first is higher: 146 °C for the first, 100 to 103 °C for the second.

First: O=C(Nc1ccccc1N1CCc2ccccc21)c1ccccc1F
Second: O=C(Nc1ccccc1OC(=O)c1ccccc1)c1cc(Cl)c(OC(=O)c2ccccc2)c(Cl)c1
The melting point of the first is lower: 139 to 141 °C for the first, 157 to 160 °C for the second.

First: O=C(Cc1ccc2ccn(C3CCN(CCc4ccc(F)cc4)CC3)c2c1)NCCO
Second: OCCOc1ccc2ccn(C3CCN(CCc4ccc(F)cc4)CC3)c2c1
The melting point of the first is higher: 140 to 141 °C for the first, 118 to 119 °C for the second.

First: O=C(Nc1cccc(C(F)(F)F)c1)Nc1ccc2[nH]c(C(F)(F)F)nc2c1
Second: O=C(Cn1nnc2cccnc21)Nc1ccc(-n2nc(C(F)(F)F)cc2C2CC2)cc1
The melting point of the first is higher: 213 to 215 °C for the first, 206 to 209 °C for the second.

First: COc1ccc(N2CCN(c3c(C)c(C)c4c(c3C)C(N3CCCC3)C(C)(C)O4)CC2)cc1OC (configuration not stated)
Second: COc1ccc(CNC(=O)c2cc(C)sc2N)cc1OC
The melting point of the first is lower: 128 to 130 °C for the first, 175 °C for the second.

First: NS(=O)(=O)Oc1c(Cl)cccc1Cl
Second: CC(=O)N(c1cc(N)c(F)cc1Cl)S(=O)(=O)CCl
The melting point of the first is lower: 108 to 110 °C for the first, 176 to 180 °C for the second.

Compared with `CS(=O)(=O)c1ccc(-c2cnn(-c3cccc(Cl)c3)c(=O)c2-c2ccc(F)cc2)cc1`, `CC(C)c1nc(-c2cccc3c2OCO3)cc(-c2ccc(F)cc2)c1CO` is lower in melting point: 232 to 235 °C for the first, 114 to 115 °C for the second.

First: CC(O)C#CC1(C)C=CN=C(N)N1 (configuration not stated)
Second: CCOC(=O)c1cnn(-c2cc(Cl)cc(Cl)c2)c1SC
The melting point of the first is higher: 155 °C for the first, 70 to 72 °C for the second.

First: Cc1cc(Nc2cc(C(C)(C)C)c(O)c(C(C)(C)C)c2)n2nccc2n1
Second: CC(C)(C)c1cc(-c2nnc(NC(N)=O)s2)cc(C(C)(C)C)c1O
The melting point of the first is lower: 251 to 253 °C for the first, > 270 °C for the second.

Compared with `CS(=O)(=O)NCCn1c2ccccc2c(=O)c2ccccc21`, `Cc1nc(-n2ccc3c(OCc4ccccc4)cccc3c2=O)sc1C(=O)NCc1ccccc1` is lower in melting point: 226 to 227 °C for the first, 225 to 226 °C for the second.

First: CCC(C)(C)c1ccc2nc(-c3ccc([N+](=O)[O-])cc3)oc2c1
Second: CCNc1ccc(C(=O)Nc2ccc3ccc(OC)nc3n2)cc1
The melting point of the first is higher: 147 to 148 °C for the first, 134 °C for the second.

First: COc1c(N2C[C@@H](C)N[C@@H](C)C2)c(F)cc2c(=O)c(C(=O)O)cn([C@@H]3C[C@@H]3F)c12
Second: COc1cc2c(c3c1OC(C)(C)C3)C(c1cccc(C(=O)NC3CCNC3=O)c1)=NC(C)(C)C2 (configuration not stated)
The melting point of the first is lower: 129 to 131 °C for the first, 191 to 193 °C for the second.

First: CC(O)c1ccc(Nc2nccc(-c3cccnc3)n2)cc1 (configuration not stated)
Second: Cc1nc(-c2ccc(NC(=O)OCc3ccccc3)cc2)c[nH]c1=O
The melting point of the first is lower: 145 to 147 °C for the first, 238 to 240 °C for the second.

First: CC(CCCl)=C1SC(=S)N(CC(=O)O)C1=O
Second: O=C(NCCO)c1cc(Cl)c(O)c(Cl)c1
The melting point of the first is higher: 205 to 207 °C for the first, 174 to 178 °C for the second.

First: CC(O)c1cc2c(s1)C(=O)c1ccsc1C2=O (configuration not stated)
Second: Cc1[nH]c(=O)sc1C(=O)c1ccc(F)cc1
The melting point of the first is lower: 166 to 168 °C for the first, 209 to 210 °C for the second.

First: CNC(=O)CCCCCN(C)S(=O)(=O)c1ccc(Cl)c(COc2cccc3ccc(C)nc23)c1Cl
Second: CCCC1=C(Cl)C(=O)c2oc(Cc3ccc(OC)c(Cl)c3)c(C)c2C1=O
The melting point of the first is lower: 110 to 112 °C for the first, 134 to 136 °C for the second.

Compared with `Fc1ccc2ncc3ncn(-c4ccccc4F)c3c2c1`, `C[C@@H](n1cnc2cc(-c3ccc(C(N)=O)cc3)sc2c1=O)[C@](O)(Cn1cncn1)c1ccc(F)cc1F` is higher in melting point: 162 to 163 °C for the first, 280 to 285 °C for the second.

First: Nc1nc(OCc2ccccc2)nc2c1ncn2C1OC(CO)C(O)C1O (configuration not stated)
Second: CC1C[C@@H]2[C@H](O1)[C@@H](NC(=O)OC(C)(C)C)CN2Cc1ccccc1 (relative stereo)
The melting point of the first is higher: 178 to 179 °C for the first, 56 to 60 °C for the second.

First: O=C(N[C@H]1CC[C@H](CCN2CCC(c3cccc4c3CCO4)CC2)CC1)c1ccnc2ccccc12
Second: c1ccc(C2CCN(CC34CC(c5ccccc53)c3ccccc34)CC2)cc1
The melting point of the first is lower: 211 °C for the first, > 300 °C for the second.

First: CCCN(c1ccc(C(F)(F)F)cc1)c1nc(=O)c2cccnc2s1
Second: COC(=O)C12COc3ccccc3C1NN(C(=O)Nc1ccc(C(F)(F)F)cc1)C2 (configuration not stated)
The melting point of the first is higher: 216 to 217 °C for the first, 211 to 212 °C for the second.

Compared with `COc1ccc(OC)c2nc(Cl)c(CCCl)cc12`, `CCC(=O)c1cccc(Oc2nc(OC)cc(OC)n2)c1C(=O)OC` is higher in melting point: 108 to 110 °C for the first, 120 to 122 °C for the second.

First: O=C(Nc1ccc(Cl)cc1)NC1N=C(c2ccccc2)c2ccccc2-n2cnnc21 (configuration not stated)
Second: c1ccc(Cc2nnc(Nc3cccc(-n4ccnc4)c3)c3ccccc23)cc1
The melting point of the first is higher: 294 to 296 °C for the first, 214 to 217 °C for the second.

First: O=C1c2ccccc2C(=O)N1OCc1ccc(F)c(Oc2ccccc2)c1
Second: O=C(c1ccccc1)c1sc2cc(O)ccc2c1-c1ccccc1
The melting point of the first is lower: 88.2 °C for the first, 187 to 190 °C for the second.

First: COc1cc2c(cc1OC)N(C(=O)c1ccc(-c3ccccc3OC)c(C)c1)Cc1ccc(C(=O)N(C)CC(O)C(O)C(O)C(O)CO)n1C2 (configuration not stated)
Second: CC(C)(C)c1ccc(C(=O)c2ccc3n2Cc2ccccc2N(C(=O)c2ccc(C4CCCCC4)cc2)C3)cc1
The melting point of the first is lower: 110 to 120 °C for the first, 143 to 145 °C for the second.

First: O=C(C=Cc1ccc(NC(=O)c2ccccc2)cc1)NO
Second: O=C(c1ccccc1)c1[nH]c2cc(Cl)ccc2c1CC(=O)N1CCCCC1
The melting point of the first is higher: 232 to 234 °C for the first, 223 to 224 °C for the second.

First: O=C(Cl)C(=O)N1CCOC1=O
Second: CC(=O)N1CCC(n2nc(-c3c(-c4ccccc4)nn4ccccc34)ccc2=O)CC1
The melting point of the first is lower: 57 °C for the first, 114 to 117 °C for the second.

First: CCOC(=O)C1=C(N)NC(c2ccccc2)=CC1c1cccc(Cl)c1 (configuration not stated)
Second: NC(=O)c1cc2c(Oc3ccc(Cl)cc3)cncc2s1
The melting point of the first is lower: 161 °C for the first, 176 to 177 °C for the second.

First: CCCS(=O)(=O)N[C@@H](CC(C)C)C(=O)N[C@@H](C(C)C)[C@@H](O)c1c(-c2ccccc2)c1=O
Second: CCOC(=O)c1ccc(OC(F)F)cc1S(=O)(=O)NC(=O)Nc1nc(OC)cc(OC)n1
The melting point of the first is higher: 195 to 196 °C for the first, 146 to 149 °C for the second.

First: CSc1nn(-c2c(Cl)cc(C(F)(F)F)cc2Cl)c2ncnc(-c3ccccc3Cl)c12
Second: N#Cc1nn(-c2c(Cl)cc(C(F)(F)F)cc2Cl)c(N)c1-c1ccc(Cl)cc1
The melting point of the first is lower: 156 to 158 °C for the first, 235 to 237 °C for the second.

First: Cc1ccc(COc2ncc(F)c(NS(C)(=O)=O)n2)cc1
Second: CC(C)c1ccc(OC(Cc2ccc(OCCNC(=O)c3ccc(-c4ccc(F)cc4)nc3)cc2)C(=O)O)cc1 (configuration not stated)
The melting point of the first is lower: 145 to 148 °C for the first, 199 to 200 °C for the second.

First: Cc1nccn1-c1ccc(N)cc1C(F)(F)F
Second: Cc1cc(Oc2ncc(C(F)(F)F)cc2Cl)ccc1N=C=O
The melting point of the first is lower: 117 to 119 °C for the first, 154 to 161 °C for the second.

Compared with `CC(O)CC(=O)c1cccc2c1nc(-c1c(F)cccc1F)n2Cc1c(F)cccc1F` (configuration not stated), `CC(C)CC(=O)Nc1cccc(-c2ccnc3c(Br)cnn23)c1` is lower in melting point: 149 to 150 °C for the first, 132 to 134 °C for the second.

Compared with `CN(CCCNC(=O)NCCCOc1cccc(CN2CCCCC2)c1)CCC(c1ccc(F)cc1)c1ccccn1` (configuration not stated), `CCCCCCCNC(=O)Nc1ccccc1C(=O)N1CCCN(C(c2ccccc2)c2ccccc2)CC1` is higher in melting point: 65 to 67 °C for the first, 125 °C for the second.

First: COc1ccc(C(=O)c2sccc2OC2OC(COC(C)=O)C(OC(C)=O)C(OC(C)=O)C2OC(C)=O)cc1 (configuration not stated)
Second: COc1ccc(NC(=NC#N)NC(NC(=O)c2ccc(Cl)cc2)C(C)(Cl)Cl)c(OC)n1 (configuration not stated)
The melting point of the first is lower: 149 to 151 °C for the first, 162 to 163 °C for the second.

First: CN1CCN(c2nc(N)c3c(n2)CCCS3)CC1
Second: CCc1nc2c(cnn2CC)c(NC2CCOCC2)c1CNC(=O)c1cccc(C(=O)NCc2cc(Cl)cc(-c3cccc(CN4CCCNCC4)c3)c2)c1
The melting point of the first is higher: 140 to 141 °C for the first, 121 to 124 °C for the second.

First: CC(C)(C)c1cc(OCCCCCCC(=O)O)cc(C(C)(C)C)c1
Second: CC(=O)N[C@@H]1c2cc(C)ccc2OC(C)(C)[C@H]1O (relative stereo)
The melting point of the first is lower: 88 to 90 °C for the first, 188 to 190 °C for the second.

In the case of `C#CCNC(=C[N+](=O)[O-])SC`, the melting point is reported as 131 to 132 °C.
